Experiments:
Italian ryegrass = test: Test C pre-/postemergence test; assay type: in vivo, Lolium multiflorum; details: for Plant response rating, Ryegrass, Italian: 31 g ai/ha, scale 0 to 100 (0 no effect, 100 complete control)
Procedure, shortened: (§1)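 Compounds in a non-phytotoxic solvent with surfactant applied preemergence to seeded pots and, at the same time, postemergence to plants 2–18 cm tall (1- to 4-leaf stage). Paddy tests: pots flooded to 3 cm, compound applied into the water, depth held throughout.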

morningglory = test: Test A pre-/postemergence greenhouse test; assay type: in vivo, Ipomoea spp.; details: for Plant response rating, Morningglory: 0 to 100 scale where 0 is no effect and 100 is complete control; for Morningglory plant response rating: 0 to 100 scale
Procedure, shortened: (§2)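 Herbicidal effect is a visual injury score given about ten days post-treatment by comparison with untreated controls. Preemergence plots received a directed spray onto sown loam–sand soil; postemergence plants, at the one- to two-leaf stage and 2–10 cm tall, were sprayed at the same time.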

umbrella sedge = test: Test C flooded paddy test; assay type: in vivo, Cyperus difformis; details: Flood
Procedure, shortened: (§3)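 Pots were flooded to 3 cm above the soil surface at treatment, compound applied directly to the paddy water, and that depth held throughout. Plants were kept in a greenhouse for 13 to 15 days, then visually rated against untreated controls.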

soybean = test: Test C pre-/postemergence test; assay type: in vivo, Glycine max; details: for Plant response rating, Soybean: 31 g ai/ha, scale 0 to 100 (0 no effect, 100 complete control)
Procedure, shortened: as §1

pigweed = test: Test C pre-/postemergence test; assay type: in vivo, Amaranthus retroflexus; details: for Plant response rating, Pigweed: 31 g ai/ha, scale 0 to 100 (0 no effect, 100 complete control)
Procedure, shortened: as §1

crabgrass [1] = test: Test A pre-/postemergence greenhouse test; assay type: in vivo, Digitaria sanguinalis; details: for Plant response rating, Crabgrass, Large: 0 to 100 scale where 0 is no effect and 100 is complete control; for Crabgrass, Large plant response rating: 0 to 100 scale
Procedure, shortened: as §2

barnyardgrass [2] = test: Test C flooded paddy test; assay type: in vivo, Echinochloa crus-galli; details: Flood
Procedure, shortened: as §3

crabgrass [3] = test: Test C pre-/postemergence test; assay type: in vivo, Digitaria sanguinalis; details: for Plant response rating, Crabgrass, Large: 31 g ai/ha, scale 0 to 100 (0 no effect, 100 complete control)
Procedure, shortened: as §1

giant foxtail = test: Test A pre-/postemergence greenhouse test; assay type: in vivo, Setaria faberi; details: for Plant response rating, Foxtail, Giant: 0 to 100 scale where 0 is no effect and 100 is complete control; for Foxtail, Giant plant response rating: 0 to 100 scale
Procedure, shortened: as §2

cocklebur = test: Test C pre-/postemergence test; assay type: in vivo, Xanthium strumarium; details: for Plant response rating, Cocklebur: 31 g ai/ha, scale 0 to 100 (0 no effect, 100 complete control)
Procedure, shortened: as §1

[4] = test system: common (oilseed) sunflower; test: Test C pre-/postemergence test; assay type: in vivo, Helianthus annuus; details: for Plant response rating, Sunflower: 31 g ai/ha, scale 0 to 100 (0 no effect, 100 complete control)
Procedure, shortened: as §1

Goosegrass = test: Test C pre-/postemergence test; assay type: in vivo, Eleusin indica; details: for Plant response rating, Goosegrass: 31 g ai/ha, scale 0 to 100 (0 no effect, 100 complete control)
Procedure, shortened: as §1

bermudagrass = test: Test C pre-/postemergence test; assay type: in vivo, Cynodon dactylon; details: for Plant response rating, Bermudagrass: 31 g ai/ha
Procedure, shortened: as §1

kochia = test: Test C pre-/postemergence test; assay type: in vivo, Kochia scoparia; details: for Plant response rating, Kochia: 31 g ai/ha, scale 0 to 100 (0 no effect, 100 complete control)
Procedure, shortened: as §1

Surinam grass = test: Test C pre-/postemergence test; assay type: in vivo, Brachiaria decumbens; details: for Plant response rating, Surinam Grass: 31 g ai/ha, scale 0 to 100 (0 no effect, 100 complete control)
Procedure, shortened: as §1

barnyardgrass [5] = test: Test A pre-/postemergence greenhouse test; assay type: in vivo, Echinochloa crus-galli; details: for Plant response rating, Barnyardgrass: 0 to 100 scale where 0 is no effect and 100 is complete control; for Barnyardgrass plant response rating: 0 to 100 scale
Procedure, shortened: as §2

lambsquarters = test: Test C pre-/postemergence test; assay type: in vivo, Chenopodium album; details: for Plant response rating, Lambsquarters: 31 g ai/ha, scale 0 to 100 (0 no effect, 100 complete control)
Procedure, shortened: as §1

[6] = 62 g ai/ha, Preemergence, scale 0 to 100
[7] = 125 g ai/ha, preemergence, scale 0 (no effect) to 100 (complete control)
[8] = preemergence, 250 g ai/ha, scale 0 (no effect) to 100 (complete control)
[9] = Postemergence, 500 g ai/ha, 0 is no effect, 100 is complete control
[10] = Preemergence, 125 g ai/ha, 0 no effect, 100 complete control
[11] = Preemergence, 500 g ai/ha, 0 no effect, 100 complete control
[12] = 62 g ai/ha, scale 0 to 100 (0 no effect, 100 complete control)
[13] = 250 g ai/ha, scale 0 to 100, 0 no effect, 100 complete control, 13 to 15 days
[14] = 62 g ai/ha, Preemergence, scale 0 to 100 (0 no effect, 100 complete control)
[15] = Preemergence, scale 0 to 100 (0 no effect, 100 complete control)
[16] = Postemergence, 125 g ai/ha, 0 is no effect, 100 is complete control
[17] = 31 g ai/ha, scale 0 to 100 (0 no effect, 100 complete control)
[18] = 62 g ai/ha, scale 0 to 100, 0 no effect, 100 complete control, 13 to 15 days
[19] = 125 g ai/ha, scale 0 to 100, 0 no effect, 100 complete control, 13 to 15 days
[20] = preemergence, 125 g ai/ha, scale 0 (no effect) to 100 (complete control)

Compound: Cc1cc[n+]([O-])c(S(=O)(=O)Cc2c(C(F)(F)C(F)(F)F)nn(C)c2OCC(F)(F)F)c1 [Compound 99]
- Ryegrass, Italian plant response rating (Italian ryegrass; [6]): 70
- Ryegrass, Italian plant response rating (Italian ryegrass; [7]): 75
- Plant response rating, Ryegrass, Italian (Italian ryegrass; Preemergence): 70
- Ryegrass, Italian plant response rating (Italian ryegrass; [8]): 100
- Plant response rating, Morningglory (morningglory; Postemergence, 125 g ai/ha): 40
- Morningglory plant response rating (morningglory; [9]): 50
- Morningglory plant response rating (morningglory; [10]): 50
- Morningglory plant response rating (morningglory; [11]): 100
- Plant response rating, Sedge, Umbrella (umbrella sedge; [12]): 0
- Plant response rating, Sedge, Umbrella (umbrella sedge; [13]): 65
- Soybean plant response rating (soybean; [6]): 25
- Soybean plant response rating (soybean; [7]): 30
- Plant response rating, Soybean (soybean; Preemergence): 0
- Soybean plant response rating (soybean; [8]): 98
- Pigweed plant response rating (pigweed; [6]): 100
- Pigweed plant response rating (pigweed; [7]): 100
- Plant response rating, Pigweed (pigweed; Preemergence): 100
- Pigweed plant response rating (pigweed; [8]): 100
- Plant response rating, Crabgrass, Large (crabgrass [1]; Postemergence, 125 g ai/ha): 60
- Crabgrass, Large plant response rating (crabgrass [1]; [9]): 80
- Crabgrass, Large plant response rating (crabgrass [1]; [10]): 80
- Crabgrass, Large plant response rating (crabgrass [1]; [11]): 100
- Plant response rating, Barnyardgrass (barnyardgrass [2]; [12]): 0
- Plant response rating, Barnyardgrass (barnyardgrass [2]; [13]): 20
- Crabgrass, Large plant response rating (crabgrass [3]; [6]): 100
- Crabgrass, Large plant response rating (crabgrass [3]; [7]): 100
- Plant response rating, Crabgrass, Large (crabgrass [3]; Preemergence): 80
- Crabgrass, Large plant response rating (crabgrass [3]; [8]): 100
- Plant response rating, Foxtail, Giant (giant foxtail; Postemergence, 125 g ai/ha): 70
- Foxtail, Giant plant response rating (giant foxtail; [9]): 80
- Foxtail, Giant plant response rating (giant foxtail; [10]): 90
- Foxtail, Giant plant response rating (giant foxtail; [11]): 100
- Cocklebur plant response rating (cocklebur; [6]): 0
- Cocklebur plant response rating (cocklebur; [7]): 0
- Plant response rating, Cocklebur (cocklebur; Preemergence): 0
- Cocklebur plant response rating (cocklebur; [8]): 30
- Sunflower plant response rating [4, 6]: 30
- Sunflower plant response rating [4, 7]: 30
- Plant response rating, Sunflower ([4]; Preemergence): 30
- Sunflower plant response rating [4, 8]: 40
- Goosegrass plant response rating (Goosegrass; [6]): 95
- Goosegrass plant response rating (Goosegrass; [7]): 100
- Plant response rating, Goosegrass (Goosegrass; Preemergence): 85
- Goosegrass plant response rating (Goosegrass; [8]): 100
- Bermudagrass plant response rating (bermudagrass; [14]): 100
- Bermudagrass plant response rating (bermudagrass; [7]): 100
- Plant response rating, Bermudagrass (bermudagrass; [15]): 85
- Bermudagrass plant response rating (bermudagrass; [8]): 100
- Kochia plant response rating (kochia; [6]): 100
- Kochia plant response rating (kochia; [7]): 100
- Plant response rating, Kochia (kochia; Preemergence): 100
- Kochia plant response rating (kochia; [8]): 100
- Surinam Grass plant response rating (Surinam grass; [6]): 75
- Surinam Grass plant response rating (Surinam grass; [7]): 95
- Plant response rating, Surinam Grass (Surinam grass; Preemergence): 0
- Surinam Grass plant response rating (Surinam grass; [8]): 95
- Plant response rating, Barnyardgrass (barnyardgrass [5]; Postemergence, 125 g ai/ha): 60
- Barnyardgrass plant response rating (barnyardgrass [5]; [9]): 80
- Barnyardgrass plant response rating (barnyardgrass [5]; [10]): 70
- Barnyardgrass plant response rating (barnyardgrass [5]; [11]): 100
- Lambsquarters plant response rating (lambsquarters; [6]): 100
- Lambsquarters plant response rating (lambsquarters; [7]): 100
- Plant response rating, Lambsquarters (lambsquarters; Preemergence): 100
- Lambsquarters plant response rating (lambsquarters; [8]): 100

Compound: Cn1nc(C(F)(F)F)c(C[S+]([O-])c2ccc(Cl)c[n+]2[O-])c1Cl (racemic) [Compound 17]
- Ryegrass, Italian plant response rating (Italian ryegrass; [6]): 60
- Plant response rating, Ryegrass, Italian (Italian ryegrass; Preemergence): 30
- Morningglory plant response rating (morningglory; [16]): 10
- Morningglory plant response rating (morningglory; [9]): 50
- Morningglory plant response rating (morningglory; [10]): 10
- Plant response rating, Morningglory (morningglory; Preemergence, 500 g ai/ha): 90
- Plant response rating, Sedge, Umbrella (umbrella sedge; [17]): 60
- Plant response rating, Sedge, Umbrella (umbrella sedge; [18]): 85
- Plant response rating, Sedge, Umbrella (umbrella sedge; [19]): 95
- Plant response rating, Sedge, Umbrella (umbrella sedge; [13]): 95
- Soybean plant response rating (soybean; [6]): 20
- Plant response rating, Soybean (soybean; Preemergence): 0
- Pigweed plant response rating (pigweed; [6]): 100
- Plant response rating, Pigweed (pigweed; Preemergence): 100
- Crabgrass, Large plant response rating (crabgrass [1]; [16]): 80
- Crabgrass, Large plant response rating (crabgrass [1]; [9]): 90
- Crabgrass, Large plant response rating (crabgrass [1]; [10]): 90
- Plant response rating, Crabgrass, Large (crabgrass [1]; Preemergence, 500 g ai/ha): 100
- Plant response rating, Barnyardgrass (barnyardgrass [2]; [17]): 20
- Plant response rating, Barnyardgrass (barnyardgrass [2]; [18]): 65
- Plant response rating, Barnyardgrass (barnyardgrass [2]; [19]): 85
- Plant response rating, Barnyardgrass (barnyardgrass [2]; 250 g ai/ha, scale 0 to 100 (0 no effect, 100 complete control)): 85
- Crabgrass, Large plant response rating (crabgrass [3]; [6]): 100
- Plant response rating, Crabgrass, Large (crabgrass [3]; Preemergence): 98
- Plant response rating (0 to 100), Crabgrass, Large (crabgrass [3]; Preemergence, 250 g ai/ha): 100
- Foxtail, Giant plant response rating (giant foxtail; [16]): 80
- Foxtail, Giant plant response rating (giant foxtail; [9]): 90
- Foxtail, Giant plant response rating (giant foxtail; [10]): 100
- Plant response rating, Foxtail, Giant (giant foxtail; Preemergence, 500 g ai/ha): 100
- Cocklebur plant response rating (cocklebur; [6]): 0
- Plant response rating, Cocklebur (cocklebur; Preemergence): 0
- Cocklebur plant response rating (cocklebur; [20]): 0
- Sunflower plant response rating [4, 6]: 5
- Plant response rating, Sunflower ([4]; Preemergence): 0
- Goosegrass plant response rating (Goosegrass; [6]): 100
- Plant response rating, Goosegrass (Goosegrass; Preemergence): 100
- Plant response rating (0 to 100), Goosegrass (Goosegrass; Preemergence, 250 g ai/ha): 100
- Bermudagrass plant response rating (bermudagrass; [14]): 100
- Plant response rating, Bermudagrass (bermudagrass; [15]): 80
- Plant response rating (0 to 100), Bermudagrass (bermudagrass; Preemergence, 250 g ai/ha): 100
- Bermudagrass plant response rating (bermudagrass; [20]): 100
- Kochia plant response rating (kochia; [6]): 100
- Plant response rating, Kochia (kochia; Preemergence): 80
- Surinam Grass plant response rating (Surinam grass; [6]): 95
- Plant response rating, Surinam Grass (Surinam grass; Preemergence): 0
- Barnyardgrass plant response rating (barnyardgrass [5]; [16]): 80
- Barnyardgrass plant response rating (barnyardgrass [5]; [9]): 90
- Barnyardgrass plant response rating (barnyardgrass [5]; [10]): 70
- Plant response rating, Barnyardgrass (barnyardgrass [5]; Preemergence, 500 g ai/ha): 100
- Lambsquarters plant response rating (lambsquarters; [6]): 100
- Plant response rating, Lambsquarters (lambsquarters; Preemergence): 100

Reference: patent US20100298141A1, “SUBSTITUTED PYRIDINE N-OXIDE HERBICIDES” (E. I. DU PONT DE NEMOURS AND COMPANY, priority 2007, published 2010)
